According to patent US11433048B2, “CXCR4 receptor-binding compounds useful for increasing interferon level” (CENTRE NATIONAL de la RECHERCHE SCIENTIFIQUE, priority 2016, dated 2022):
Counter-ions that a name gives are not always drawn. Like-named read-outs stand apart in the source and are kept apart here.

Columns and labels:
[1] = system: HIV-activated pDC; format: cell-based, human
[2] = system: HIV-activated pDC; conditions: ELISA, AMD3100 20 μM pre-treatment, then CB, HIV overnight
[3] = AMD3100 20 μM pre-incubation, histamine or CB 10 μM, HIV-X4 overnight, normalized to RPL13A
[4] = AMD3100 alone, HIV-stimulated pDC
[5] = AMD-3100 20 μM, then CB 10 μM, HIV overnight, normalized to RPL13A

c1cc(CN2CCCNCCNCCCNCC2)ccc1CN1CCCNCCNCCCNCC1 [AMD3100, plerixafor]
IFN-a mRNA expression inhibited by histamine or CB in HIV-activated pDC (FIG. 1) [1, 3]: could restore | IFN-β mRNA expression inhibited by histamine or CB in HIV-activated pDC (FIG. 1) [1, 3]: could restore | TRAIL mRNA expression inhibited by histamine or CB in HIV-activated pDC (FIG. 1) [1, 3]: could restore | biological activities of histamine and CB on HIV activated-pDC ([1]; AMD3100 (20 μM) 1 hour, then histamine or CB (10 μM) 1 hour, HIV-1 overnight): drastically abolished | TRAIL expression by HIV-activated pDC [1, 4]: did not block | type I IFN expression by HIV-activated pDC [1, 4]: did not block | IFN-stimulated gene 56 (ISG56) mRNA expression in HIV-activated pDC (restoration, FIG. 3A) [1, 5]: confirmed | IFN-γ mRNA expression in HIV-activated pDC (restoration, FIGS. 3A-3C) [1, 5]: confirmed | IL-6 mRNA expression in HIV-activated pDC (restoration, FIG. 3C) [1, 5]: confirmed | IFN-a production inhibited by histamine or CB in HIV-activated pDC (FIG. 2) [2]: could restore

NC(=NCc1ccc(Cl)cc1)SCCCc1cnc[nH]1 [CB, clobenpropit dihydrobromide]
production of IFN-I by HIV-stimulated pDC ([1]; amine-type compounds, 10 μM): inhibit

Cl.Cl.NCCc1c[nH]cn1 [histamine, Histamine dihydrochloride]
production of IFN-I by HIV-stimulated pDC [1]: inhibit
